In patent publication US4537967A, “1-Oxo-1,2,3,4-tetrahydro-3-isoquinoline carboxylic acid derivatives” (Wakamoto Pharmaceutical Co., Ltd., priority 1982, dated 1985):

Assays:
[1] = molecular target: T1, angiotensin converting enzyme (ACE) (Oryctolagus cuniculus, UniProt P12822); experiment: ACE inhibition in vitro with hippuryl-L-histidine-L-leucine as substrate (method of Biochemical Pharmacology, 20, 1637 (1971)); set-up: species or system rabbit (lung); conditions: read-out: 50% inhibition concentration (ID50)
T1 construct: ACE extracted from rabbit lung and purified; from tissue; host or cells: rabbit lung
T1 sequence (P12822 34-1310): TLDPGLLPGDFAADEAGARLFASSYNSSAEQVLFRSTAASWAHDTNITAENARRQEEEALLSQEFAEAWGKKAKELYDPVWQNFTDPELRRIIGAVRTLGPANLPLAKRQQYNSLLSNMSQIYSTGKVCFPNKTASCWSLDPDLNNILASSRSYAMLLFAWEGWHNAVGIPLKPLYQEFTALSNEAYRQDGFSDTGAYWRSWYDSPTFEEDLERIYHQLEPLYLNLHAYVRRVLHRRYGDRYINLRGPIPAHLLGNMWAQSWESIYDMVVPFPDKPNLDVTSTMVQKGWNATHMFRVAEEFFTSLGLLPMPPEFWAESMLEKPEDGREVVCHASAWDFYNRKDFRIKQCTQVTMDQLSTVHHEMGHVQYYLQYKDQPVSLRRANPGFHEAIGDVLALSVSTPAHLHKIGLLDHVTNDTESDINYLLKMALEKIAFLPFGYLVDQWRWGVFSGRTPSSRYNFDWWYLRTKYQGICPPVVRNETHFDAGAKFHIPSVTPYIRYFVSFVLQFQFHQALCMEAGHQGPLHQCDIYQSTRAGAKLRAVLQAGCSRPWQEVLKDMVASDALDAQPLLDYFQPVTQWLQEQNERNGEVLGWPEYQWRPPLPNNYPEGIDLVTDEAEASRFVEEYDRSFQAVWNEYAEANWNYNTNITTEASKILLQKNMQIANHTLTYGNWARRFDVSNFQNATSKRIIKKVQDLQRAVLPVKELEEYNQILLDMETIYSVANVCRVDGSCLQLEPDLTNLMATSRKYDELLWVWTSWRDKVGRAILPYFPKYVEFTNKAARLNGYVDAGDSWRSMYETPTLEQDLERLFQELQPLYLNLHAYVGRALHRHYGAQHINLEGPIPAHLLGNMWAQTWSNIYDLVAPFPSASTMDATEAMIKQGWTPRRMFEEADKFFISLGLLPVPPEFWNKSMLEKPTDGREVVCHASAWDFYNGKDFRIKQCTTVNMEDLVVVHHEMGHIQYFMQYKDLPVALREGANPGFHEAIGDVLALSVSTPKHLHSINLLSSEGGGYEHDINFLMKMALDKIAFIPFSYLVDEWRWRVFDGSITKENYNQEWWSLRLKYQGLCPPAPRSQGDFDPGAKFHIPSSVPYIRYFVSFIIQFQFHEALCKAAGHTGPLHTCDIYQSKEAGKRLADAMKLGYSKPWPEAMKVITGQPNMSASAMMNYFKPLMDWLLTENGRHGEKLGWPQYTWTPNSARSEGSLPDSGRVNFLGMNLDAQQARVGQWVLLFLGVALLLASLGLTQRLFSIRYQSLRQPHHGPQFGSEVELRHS
Description: (§1) The compounds [I] according to the present invention may be expected to be useful as a […], since they have an excellent ACE inhibitory effect. This has been well evidenced by an experiment using ACE extracted from rabbit lung and purified. The ACE inhibitory effect of the compounds of the present invention was determined according to the following illustrative test and the results will be shown in the following Table 1.
The compounds of the present invention act to inhibite angiotensin converting enzyme which converts angiotensin I, produced by the action of the enzyme renin from angiotensinogen, to angiotensin II which acts as a pressor agent. Therefore, these compounds may be expected to be effective in the treatment of hypertension.

[2] = test system: angiotensin converting enzyme (ACE); experiment: Inhibition of the angiotensin-induced rise in blood pressure in rats after oral administration (illustrative test, ACE inhibitory effect); assay type: in vivo, male rats (Spraque-Dawleg); conditions: angiotensin I 300 ng/kg and angiotensin II 100 ng/kg i.v., maximum blood pressure rise vs control
Description: as §1
In this test, male rats (Spraque-Dawleg) of 250 to 350 g in weight were used, which were raised under conditions of free access to food and water.
The day before the test, each rat was narcotized by sodium pentobarbital (50 mg/kg) injected intraperitoneally. A polyethylene tube was inserted into a vein at the groin and fixed in order to introduce angiotensin and, further, another polyethylene tube was inserted into an artery at the groin and fixed to measure the blood pressure thereof. The blood pressure was determined by the use of an electronic sphygmomanometer (Nihon Kohden Kogyo Co., Ltd. type MP-4T).
Each rat was injected with 300 ng/kg of angiotensin I and 100 ng/kg of angiotensin II through the vein at the groin and the blood pressure recorded periodically and the maximum value of the rise in the blood pressure resulting from the injection of angiotensin was determined for use as a control.
Then, the percentage of inhibitory effect was determined by orally administering 13.8 μM/kg of a compound of the invention to each rat, and injecting 300 ng/kg of angiotensin I and 100 ng/kg of angiotensin II into the vein at the groin at periods of 20, 60 or 120 minutes after the administration of the compound, with maximum blood pressures being determined by periodically measuring the blood pressure and comparing each maximum value obtained with that of the controls.

Row | IC50 [1] | Structure (SMILES) | Inhibition (%) ([2]; 20 min after oral 13.8 μM/kg) | Inhibition (%) ([2]; 60 min after oral 13.8 μM/kg) | Inhibition (%) ([2]; 120 min after oral 13.8 μM/kg)
1 | 0.073 µM | CC(CS)C(=O)N1C(=O)c2ccccc2CC1C(=O)O (centres unmarked) [Example 2, 2-(3-mercapto-2-methylpropionyl)-1-oxo-1,2,3,4-tetrahydro-3-isoquinoline carboxylic acid] | 83% | 70% | 72%
2 | 0.051 µM | O=C(O)C1Cc2ccccc2C(=O)N1C(=O)CCS (centres unmarked) [Example 1, 2-(3-mercaptopropionyl)-1-oxo-1,2,3,4-tetrahydro-3-isoquinoline carboxylic acid] | 81% | 78% | 59%
